This is an account of results in US9556179B2 (BRISTOL-MYERS SQUIBB COMPANY, priority 2012, dated 2017).

What is called IC50 is the midpoint of a concentration-inhibition curve. High values mean a need for much substance, low ones inhibition by little substance.

The target in one assay is CK1ε (Homo sapiens (Human), UniProt P49674). The experiment in a line: CK1ε kinase assay (Caliper LABCHIP electrophoretic separation of fluoresceinated peptide substrate and product). Type of assay: biochemical. As to conditions: 200 pM enzyme, 50 μM ATP, 22 hours at room temperature. The procedure, abridged:
(§1)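 Each reaction was incubated 22 hours at room temperature and terminated with EDTA. Read-out was microfluidic electrophoretic separation of fluoresceinated substrate and phospho-product.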

For the next assay, the target named is CK1δ (Homo sapiens (Human), UniProt P48730). Kind of assay: CK1δ kinase assay (Caliper LABCHIP electrophoretic separation of fluoresceinated peptide substrate and product). As to conditions: 200 pM enzyme, 50 μM ATP, 22 hours at room temperature. Format: biochemical. A digest of the protocol: as §1
Chain of CK1δ (P48730 whole entry): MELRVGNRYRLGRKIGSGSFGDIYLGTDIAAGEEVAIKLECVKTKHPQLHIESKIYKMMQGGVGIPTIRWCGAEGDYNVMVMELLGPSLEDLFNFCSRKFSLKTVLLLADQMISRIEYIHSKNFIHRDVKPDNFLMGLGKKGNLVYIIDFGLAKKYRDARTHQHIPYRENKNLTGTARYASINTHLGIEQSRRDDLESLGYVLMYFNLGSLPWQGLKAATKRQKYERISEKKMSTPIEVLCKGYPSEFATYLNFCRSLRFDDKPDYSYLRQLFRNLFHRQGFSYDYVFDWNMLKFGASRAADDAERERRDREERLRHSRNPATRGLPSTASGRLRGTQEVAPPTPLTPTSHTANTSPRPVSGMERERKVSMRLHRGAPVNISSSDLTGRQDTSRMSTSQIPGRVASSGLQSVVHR

Chain of CK1ε (P49674 whole entry): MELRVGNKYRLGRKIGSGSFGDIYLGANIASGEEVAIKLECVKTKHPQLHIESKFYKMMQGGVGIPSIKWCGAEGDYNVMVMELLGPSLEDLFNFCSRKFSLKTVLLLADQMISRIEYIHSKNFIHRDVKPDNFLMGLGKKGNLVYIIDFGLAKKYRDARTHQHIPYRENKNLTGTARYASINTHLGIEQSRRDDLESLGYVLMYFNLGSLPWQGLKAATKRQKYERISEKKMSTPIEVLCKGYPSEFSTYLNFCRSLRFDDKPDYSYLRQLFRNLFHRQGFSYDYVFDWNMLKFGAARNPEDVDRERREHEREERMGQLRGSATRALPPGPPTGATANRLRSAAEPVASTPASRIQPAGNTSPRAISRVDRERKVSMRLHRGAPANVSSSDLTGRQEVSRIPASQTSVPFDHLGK

With `Cc1nc(-c2ccc(F)cc2)c(-c2ccc3nc(NC(=O)c4cccc(CN5CCCC5)c4)cn3n2)n1C` [Compound 394, N-(6-(4-(4-fluorophenyl)-1,2-dimethyl-1H-imidazol-5-yl)imidazo[1,2-b]pyridazin-2-yl)-3-(pyrrolidin-1-ylmethyl) benzamide], the IC50 came to 15.3 nM against CK1ε and 6.81 nM against CK1δ.

Regarding `Cc1nc(-c2ccc(F)cc2)c(-c2ccc3nc(NC(=O)c4ccc(CN5CCCC5)cc4)cn3n2)n1C` [Compound 395, N-(6-(4-(4-fluorophenyl)-1,2-dimethyl-1H-imidazol-5-yl)imidazo[1,2-b]pyridazin-2-yl)-4-(pyrrolidin-1-ylmethyl) benzamide], the IC50 is 10.6 nM on CK1ε and 5.46 nM at CK1δ.

Turning to `Cc1nc(-c2ccc(F)cc2)c(-c2ccc3nc(NC(=O)c4cncs4)cn3n2)n1C` [Compound 396, N-(6-(4-(4-fluorophenyl)-1,2-dimethyl-1H-imidazol-5-yl)imidazo[1,2-b]pyridazin-2-yl)thiazole-5-carboxamide], the IC50 on CK1ε was 4.41 nM; against CK1δ it was 3.88 nM.

Turning to `Cc1nc(-c2ccc(F)cc2)c(-c2ccc3nc(NC(=O)c4ccncc4F)cn3n2)n1C` [Compound 397, 3-fluoro-N-(6-(4-(4-fluoro-phenyl)-1,2-dimethyl-1H-imidazol-5-yl)imidazo[1,2-b]pyridazin-2-yl)isonicotin-amide], the IC50 on CK1ε came out at 6.65 nM; at CK1δ it was 2.74 nM.

Take `Cc1nc(-c2ccc(F)cc2)c(-c2ccc3nc(NC(=O)c4ccc(Cl)cc4F)cn3n2)n1C` [Compound 398, 4-chloro-2-fluoro-N-(6-(4-(4-fluorophenyl)-1,2-dimethyl-1H-imidazol-5-yl)imidazo[1,2-b]pyridazin-2-yl) benzamide]: the results for the 50% inhibitory concentration (IC50) against CK1ε and against CK1δ were 2.7 nM and 0.66 nM, respectively.

With `Cc1nc(-c2ccc(F)cc2)c(-c2ccc3nc(NC(=O)c4ccccc4F)cn3n2)n1C` [Compound 399, 2-fluoro-N-(6-(4-(4-fluoro-phenyl)-1,2-dimethyl-1H-imidazol-5-yl)imidazo[1,2-b]pyridazin-2-yl)benzamide], the IC50 on CK1ε came to 5.29 nM; against CK1δ, 2.13 nM.

Consider `Cc1nc(-c2ccc(F)cc2)c(-c2ccc3nc(NC(=O)c4cc(C(C)(C)C)ncn4)cn3n2)n1C` [Compound 400, 6-(tert-butyl)-N-(6-(4-(4-fluorophenyl)-1,2-dimethyl-1H-imidazol-5-yl)imidazo[1,2-b]pyridazin-2-yl) pyrimidine-4-carboxamide], for which the IC50 at CK1ε stood at 23.3 nM; against CK1δ it was 6.76 nM.

For the compound `Cc1cc(C)c(-c2cccnc2)cc1C(=O)Nc1cn2nc(-c3c(-c4ccc(F)cc4)nc(C)n3C)ccc2n1` [Compound 402, N-(6-(4-(4-Fluorophenyl)-1,2-dimethyl-1H-imidazol-5-yl)imidazo[1,2-b]pyridazin-2-yl)-2,4-dimethyl-5-(pyridin-3-yl)benzamide], the half-inhibitory concentration (IC50) on CK1ε worked out at 7.47 nM; against CK1δ, 0.463 nM.

Take `Cc1c(C(=O)Nc2cn3nc(-c4c(-c5ccc(F)cc5)nc(C)n4C)ccc3n2)cccc1-c1cccnc1` [Compound 403, N-(6-(4-(4-Fluorophenyl)-1,2-dimethyl-1H-imidazol-5-yl)imidazo[1,2-b]pyridazin-2-yl)-2-methyl-3-(pyridin-3-yl)benzamide]: the results for the IC50 at CK1ε and at CK1δ were 1.61 nM and 0.582 nM, respectively.

With `Cc1nc(-c2ccc(F)cc2)c(-c2ccc3nc(NC(=O)c4sc(-c5cccnc5)nc4C(F)(F)F)cn3n2)n1C` [Compound 404, N-(6-(4-(4-Fluorophenyl)-1,2-dimethyl-1H-imidazol-5-yl)imidazo[1,2-b]pyridazin-2-yl)-2-(pyridin-3-yl)-4-(trifluoromethyl)thiazole-5-carboxamide], the IC50 is 4.21 nM at CK1ε and 1.04 nM against CK1δ.

On to `Cc1nc(-c2ccc(F)cc2)c(-c2ccc3nc(NC(=O)c4sc(-c5ccncc5)nc4C(F)(F)F)cn3n2)n1C` [Compound 405, N-(6-(4-(4-Fluorophenyl)-1,2-dimethyl-1H-imidazol-5-yl)imidazo[1,2-b]pyridazin-2-yl)-2-(pyridin-4-yl)-4-(trifluoromethyl)thiazole-5-carboxamide], for which the IC50 is 4.21 nM against CK1ε and 1.04 nM against CK1δ.

Regarding `Cc1nc(-c2ccc(F)cc2)c(-c2ccc3nc(NC(=O)c4cncc(-c5ccc(F)nc5)c4)cn3n2)n1C` [Compound 406, 6′-Fluoro-N-(6-(4-(4-fluorophenyl)-1,2-dimethyl-1H-imidazol-5-yl)imidazo[1,2-b]pyridazin-2-yl)-[3,3′-bipyridine]-5-carboxamide], the values for the IC50 at CK1ε and at CK1δ were 2.94 nM and 0.349 nM, respectively.

With `Cc1nc(-c2ccc(F)cc2)c(-c2ccc3nc(NC(=O)N(C)c4ccccc4)cn3n2)n1C` [Compound 407, 3-(6-(4-(4-Fluorophenyl)-1,2-dimethyl-1H-imidazol-5-yl)imidazo[1,2-b]pyridazin-2-yl)-1-methyl-1-phenylurea], the IC50 is 59.8 nM on CK1ε and 34.9 nM against CK1δ.

Consider `Cc1nc(-c2ccc(F)cc2)c(-c2ccc3nc(NC(=O)Nc4ccc(C#N)cc4)cn3n2)n1C` [Compound 408, 1-(4-cyanophenyl)-3-(6-(4-(4-fluorophenyl)-1,2-dimethyl-1H-imidazol-5-yl)imidazo[1,2-b]pyridazin-2-yl)urea], for which the half-maximal inhibitory concentration (IC50) was 296 nM against CK1ε and 12.9 nM at CK1δ.

For the compound `Cc1nc(-c2ccc(F)cc2)c(-c2ccc3nc(NC(=O)N4CCCC4)cn3n2)n1C` [Compound 409, N-(6-(4-(4-fluorophenyl)-1,2-dimethyl-1H-imidazol-5-yl)imidazo[1,2-b]pyridazin-2-yl)pyrrolidine-1-carboxamide], the IC50 came to 30.8 nM at CK1ε and 58 nM at CK1δ.

`Cc1nc(-c2ccc(F)cc2)c(-c2ccc3nc(NC(=O)Nc4cccc(C#N)c4)cn3n2)n1C` [Compound 410, 1-(3-cyanophenyl)-3-(6-(4-(4-fluorophenyl)-1,2-dimethyl-1H-imidazol-5-yl)imidazo[1,2-b]pyridazin-2-yl)urea]: the IC50 at CK1ε was 151 nM; against CK1δ, 7.57 nM.

`Cc1nc(-c2ccc(F)cc2)c(-c2ccc3nc(NC(=O)c4ccnc(F)c4)c(Br)n3n2)n1C` [Compound 411, N-(3-Bromo-6-(4-(4-fluorophenyl)-1,2-dimethyl-1H-imidazol-5-yl)imidazo[1,2-b]pyridazin-2-yl)-2-fluoroisonicotinamide]: the IC50 against CK1ε was determined as 19.4 nM; against CK1δ, 1.61 nM.

`Cc1nc(-c2ccc(F)cc2)c(-c2ccc3nc(NC(=O)c4ccnc(F)c4)c(Cl)n3n2)n1C` [Compound 412, N-(3-Chloro-6-(4-(4-fluorophenyl)-1,2-dimethyl-1H-imidazol-5-yl)imidazo[1,2-b]pyridazin-2-yl)-2-fluoroisonicotinamide]: the IC50 against CK1ε was determined as 26.6 nM; against CK1δ it was 2.25 nM.

Regarding `Cc1nc(-c2ccc(F)cc2)c(-c2ccc3nc(NC(=O)c4ccnc(F)c4)c(C)n3n2)n1C` [Compound 413, 2-Fluoro-N-(6-(4-(4-fluorophenyl)-1,2-dimethyl-1H-imidazol-5-yl)-3-methylimidazo[1,2-b]pyridazin-2-yl)isonicotinamide], the results for the half-maximal inhibitory concentration (IC50) against CK1ε and against CK1δ were 19.6 nM and 1.14 nM, respectively.

`Cc1nc(-c2ccc(F)cc2)c(-c2ccc3nc(NC(=O)C(C)(C)C)cn3n2)n1C` [Compound 414, N-(6-(4-(4-Fluorophenyl)-1,2-dimethyl-1H-imidazol-5-yl)imidazo[1,2-b]pyridazin-2-yl)pivalamide]: the 50% inhibitory concentration (IC50) was 4.35 nM at CK1ε and 0.438 nM at CK1δ.

Regarding `O=C(Nc1cn2nc(-c3c(-c4ccc(F)cc4)ncn3CC(F)F)ccc2n1)c1cnc(-c2ccncc2)s1` [Compound 415, N-(6-(1-(2,2-Difluoroethyl)-4-(4-fluorophenyl)-1H-imidazol-5-yl)imidazo[1,2-b]pyridazin-2-yl)-2-(pyridin-4-yl)thiazole-5-carboxamide], the results for the half-maximal inhibitory concentration (IC50) at CK1ε and against CK1δ were 8.71 nM and 1.21 nM, respectively.

As for `O=C(Nc1cn2nc(-c3c(-c4ccc(F)cc4)ncn3-c3ccc(F)cc3)ccc2n1)c1ccnc(F)c1` [Compound 416, N-(6-(1,4-bis(4-Fluorophenyl)-1H-imidazol-5-yl)imidazo[1,2-b]pyridazin-2-yl)-2-fluoroisonicotinamide], the IC50 on CK1ε is 57.4 nM; on CK1δ it was 2.5 nM.

Turning to `O=C(Nc1cn2nc(-c3c(-c4ccc(F)cc4)ncn3-c3ccc(F)cc3)ccc2n1)c1cc(F)nc(F)c1` [Compound 418, N-(6-(1,4-bis(4-Fluorophenyl)-1H-imidazol-5-yl)imidazo[1,2-b]pyridazin-2-yl)-2,6-difluoroisonicotinamide], the figures for the IC50 against CK1ε and on CK1δ were 79.2 nM and 6.4 nM, respectively.

In the case of `O=C(Nc1cn2nc(-c3c(-c4ccc(F)cc4)ncn3-c3ccc(F)cc3)ccc2n1)c1ccnc(N2CCOCC2)c1` [Compound 419, N-(6-(1,4-bis(4-Fluorophenyl)-1H-imidazol-5-yl)imidazo[1,2-b]pyridazin-2-yl)-2-morpholinoisonicotinamide], the IC50 at CK1ε worked out at 35.2 nM; at CK1δ, 3.1 nM.

Turning to `O=C(Nc1cn2nc(-c3c(-c4ccc(F)cc4)ncn3-c3ccc(F)cc3)ccc2n1)c1cccc(-c2cccnc2)c1` [Compound 420, N-(6-(1,4-bis(4-Fluorophenyl)-1H-imidazol-5-yl)imidazo[1,2-b]pyridazin-2-yl)-3-(pyridin-3-yl)benzamide], the IC50 against CK1ε is 18.5 nM; against CK1δ, 3.6 nM.

In the case of `O=C(Nc1cn2nc(-c3c(-c4ccc(F)cc4)ncn3-c3cccnc3)ccc2n1)c1cc(F)nc(F)c1` [Compound 423, 2,6-Difluoro-N-(6-(4-(4-fluorophenyl)-1-(pyridin-3-yl)-1H-imidazol-5-yl)imidazo[1,2-b]pyridazin-2-yl)isonicotinamide], the 50% inhibitory concentration (IC50) against CK1ε stood at 18 nM; against CK1δ, 1.1 nM.

As for `O=C(Nc1cn2nc(-c3c(-c4ccc(F)cc4)ncn3-c3cccnc3)ccc2n1)c1ccnc(N2CCOCC2)c1` [Compound 424, N-(6-(4-(4-Fluorophenyl)-1-(pyridin-3-yl)-1H-imidazol-5-yl)imidazo[1,2-b]pyridazin-2-yl)-2-morpholinoisonicotinamide], the concentration for half-maximal inhibition (IC50) at CK1ε was determined as 13.6 nM; on CK1δ it was 1 nM.
